ChEMBL document CHEMBL4828715, “Discovery, Structure-Activity Relationships, and In Vivo Evaluation of Novel Aryl Amides as Brain Penetrant Adaptor Protein 2-Associated Kinase 1 (AAK1) Inhibitors for the Treatment of Neuropathic Pain” (J Med Chem, 2021)

Assays:
[1] = Metabolic stability in human liver microsomes assessed as parent compound remaining at 0.5 uM incubated for 10 mins in presence of NADPH by LC-MS/MS analysis; assay type: ADME, Microsome; settings: read-out: Stability
[2] = biological target: AP2-associated protein kinase 1 (Homo sapiens, UniProt Q2M2I8); assay: Inhibition of recombinant GST-Xa-tagged human AAK1 (30 to 330 residues) using 5-FAM-labelled Alla-KEEQSQITSQVTGQIGWR-NH2 peptide as substrate incubated for 3 hrs in presence of ATP by electrophoretic analysis
[3] = Metabolic stability in mouse liver microsomes assessed as parent compound remaining at 0.5 uM incubated for 10 mins in presence of NADPH by LC-MS/MS analysis; assay type: ADME, Microsome; settings: read-out: Stability
[4] = Metabolic stability in rat liver microsomes assessed as parent compound remaining at 0.5 uM incubated for 10 mins in presence of NADPH by LC-MS/MS analysis; assay type: ADME, Microsome; settings: read-out: Stability
[5] = Permeability of the compound across basolateral to apical membrane in human Caco-2 cells incubated for 2 hrs by LC-MS/MS analysis; assay type: ADME, cell-based; settings: Caco-2, read-out: permeability
[6] = Permeability of the compound at pH 7.4 incubated for 4 hrs by PAMPA-based UV spectrophotometry; assay type: ADME
[7] = Permeability of the compound at pH 5.5 incubated for 4 hrs by PAMPA-based UV spectrophotometry; assay type: ADME; settings: read-out: permeability

AP2-associated protein kinase 1, sequence (Q2M2I8 whole entry, the tested form may be a part): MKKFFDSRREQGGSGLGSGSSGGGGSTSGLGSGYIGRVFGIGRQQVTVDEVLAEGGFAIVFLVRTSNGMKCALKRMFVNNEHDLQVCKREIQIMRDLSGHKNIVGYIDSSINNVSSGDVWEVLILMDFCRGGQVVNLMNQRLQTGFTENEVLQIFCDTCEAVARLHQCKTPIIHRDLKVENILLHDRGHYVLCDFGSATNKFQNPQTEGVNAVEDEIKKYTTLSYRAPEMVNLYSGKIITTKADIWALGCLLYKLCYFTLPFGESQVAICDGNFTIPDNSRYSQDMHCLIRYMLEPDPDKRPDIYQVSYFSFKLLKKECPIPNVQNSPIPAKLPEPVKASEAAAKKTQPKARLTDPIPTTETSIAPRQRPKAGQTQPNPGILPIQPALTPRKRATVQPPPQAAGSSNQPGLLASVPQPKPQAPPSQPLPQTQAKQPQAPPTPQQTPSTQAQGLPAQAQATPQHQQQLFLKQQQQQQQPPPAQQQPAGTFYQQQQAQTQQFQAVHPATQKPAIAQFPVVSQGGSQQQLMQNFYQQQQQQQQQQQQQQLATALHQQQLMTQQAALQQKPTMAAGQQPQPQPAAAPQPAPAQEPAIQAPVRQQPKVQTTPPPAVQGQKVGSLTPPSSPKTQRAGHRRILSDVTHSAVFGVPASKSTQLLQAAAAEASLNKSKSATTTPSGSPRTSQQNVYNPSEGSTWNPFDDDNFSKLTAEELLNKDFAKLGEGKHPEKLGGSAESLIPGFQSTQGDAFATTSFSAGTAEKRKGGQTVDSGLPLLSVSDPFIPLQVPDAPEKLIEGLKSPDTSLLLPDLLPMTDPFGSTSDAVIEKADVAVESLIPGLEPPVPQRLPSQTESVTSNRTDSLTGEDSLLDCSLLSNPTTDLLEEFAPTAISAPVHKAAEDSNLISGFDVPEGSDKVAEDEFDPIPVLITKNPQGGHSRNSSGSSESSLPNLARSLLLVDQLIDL

Row | Compound | remaining at 10 min, 0.5 µM [1] [%] | IC50 [2] [nM] | remaining at 10 min, 0.5 µM [3] [%] | remaining at 10 min, 0.5 µM [4] [%] | Papp B→A at 2 h [5] [×10⁻⁶ cm/s] | Papp at 4 h ([6]; PAMPA, pH 7.4, read-out: permeability) [×10⁻⁶ cm/s] | Papp at 4 h [7] [×10⁻⁶ cm/s] | permeability ([6]; pampa, pH 7.4, 4 h)
1 | COc1cc(NC(=O)[C@H](N)CC2CCCCC2)ccc1-c1cnco1 | 68 | 480 | 78 | 63 |  |  |  | 
2 | COc1cc(NC(=O)[C@H](N)CC(C)C)ccc1-n1cncn1 | 79 | 920 | 87 | 79 |  |  |  | 
3 | COc1cc(NC(=O)[C@H](N)CC(C)C)ccc1-c1cnn(C)c1 |  | 3900 |  |  |  |  |  | 
4 | C[C@H]1O[C@@H](O[C@H]2[C@@H](O)C[C@H](O[C@H]3[C@@H](O)C[C@H](O[C@H]4CC[C@@]5(C)[C@H](CC[C@@H]6[C@@H]5C[C@@H](O)[C@]5(C)[C@@H](C7=CC(=O)OC7)CC[C@]65O)C4)O[C@@H]3C)O[C@@H]2C)C[C@H](O)[C@@H]1O [DIGOXIN] |  |  |  |  | 10 |  |  | 
5 | CCc1cc(NC(=O)[C@H](N)CC(C)C)ccc1-c1cnco1 | 88 | 100 | 45 | 70 |  |  |  | 
6 | COc1cc(NC(=O)[C@H](N)CC(C)C)ccc1-c1ccnnc1 | 99 | 110 | 70 | 74 |  |  |  | 
7 | COc1cc(NC(=O)[C@H](N)CC(C)C)ccc1-c1ccncc1 | 91 | 85 | 65 | 77 |  |  |  | 
8 | COc1cc(NC(=O)[C@H](N)CC(C)C)ccc1-c1cccnc1 |  | 10200 |  |  |  |  |  | 
9 | CC(C)C[C@@H](N)C(=O)Nc1ccc(-c2cnco2)c(OC(F)(F)F)c1 | 69 |  | 53 | 79 |  |  |  | 
10 | CC(C(=O)O)c1cccc(C(=O)c2ccccc2)c1 (stereo not drawn) [KETOPROFEN] |  |  |  |  |  | 1.1 | 34.2 | 
11 | COc1cc(NC(=O)[C@H]2CCCCN2)ccc1-c1cnco1 | 94 | 550 | 1 | 37 |  |  |  | 
12 | COc1cc(NC(=O)[C@H](N)CC(C)C)ccc1-c1ccncn1 | 71 | 290 | 40 | 52 |  |  |  | 
13 | COc1cc(NC(=O)[C@@H](C)N)ccc1-c1cnco1 | 100 | 1300 | 97 | 100 |  |  |  | 
14 | COc1cc(NC(=O)[C@H](N)Cc2ccccc2)ccc1-c1cnco1 | 68 | 630 | 56 | 49 |  |  |  | 
15 | COc1cc(NC(=O)[C@H](N)C(C)C)ccc1-c1cnco1 | 84 |  | 40 | 42 |  |  |  | 
16 | COc1cc(NC(=O)[C@H](N)CC(C)C)ccc1-c1cncnc1 |  | 5700 |  |  |  |  |  | 
17 | CCCC[C@H](N)C(=O)Nc1ccc(-c2cnco2)c(OC)c1 | 65 | 260 | 43 | 54 |  |  |  | 
18 | COc1cc(NC(=O)[C@H](N)CC(C)(C)C)ccc1-c1cnco1 |  | 85 | 65 | 76 |  |  |  | 

Row | Compound | remaining at 10 min, 0.5 µM [1] [%] | IC50 [2] [nM] | remaining at 10 min, 0.5 µM [3] [%] | remaining at 10 min, 0.5 µM [4] [%] | Papp B→A at 2 h [5] [×10⁻⁶ cm/s] | Papp at 4 h ([6]; PAMPA, pH 7.4, read-out: permeability) [×10⁻⁶ cm/s] | Papp at 4 h [7] [×10⁻⁶ cm/s] | permeability ([6]; pampa, pH 7.4, 4 h)
19 | CC[C@@H](N)C(=O)Nc1ccc(-c2cnco2)c(OC)c1 | 81 | 120 | 46 | 70 |  |  |  | 
20 | CC(C)C[C@@H](N)C(=O)Nc1ccc(-c2cnco2)cc1 | 87 | 170 | 45 | 71 |  |  |  | 
21 | COc1cc(N(C)C(=O)[C@H](N)CC(C)C)ccc1-c1cnco1 |  | 12800 |  |  |  |  |  | 
22 | COc1cc(NC(=O)[C@H](N)CC(C)C)ccc1-c1cncs1 | 75 | 190 | 55 | 76 |  |  |  | 
23 | COc1cc(NC(=O)[C@H]2NCCC[C@H]2C(C)C)ccc1-c1cnco1 | 19 | 360 | 1 | 24 |  |  |  | 
24 | COc1cc(NC(=O)CCC(C)C)ccc1-c1cnco1 | 61 | 80 | 33 | 46 |  |  |  | 
25 | CCC[C@H](N)C(=O)Nc1ccc(-c2cnco2)c(OC)c1 | 70 | 350 | 46 | 31 |  |  |  | 
26 | COc1cc(NC(=O)[C@H](N)[C@H](C)O)ccc1-c1cnco1 | 85 | 410 | 91 | 77 |  |  |  | 
27 | COc1cc(NC(=O)CC2CCCC2)ccc1-c1cnco1 | 64 | 80 | 46 | 58 |  |  |  | 
28 | COc1cc(NC(=O)Cc2ccccc2)ccc1-c1cnco1 | 78 | 430 | 70 | 70 |  |  |  | 
29 | CCC[C@@H](N)C(=O)Nc1ccc(-c2cnco2)c(OC)c1 | 87 | 90 | 49 | 63 |  |  |  | 
30 | COc1cc(NC(=O)[C@H](N)CC(C)C)ccc1-c1ccnc(N)c1 | 96 | 150 | 73 | 89 |  |  |  | 
31 | CNc1cc(-c2ccc(NC(=O)[C@H](N)CC(C)C)cc2OC)ccn1 | 69 | 450 | 24 | 22 |  |  |  | 
32 | COc1cc(NC(=O)[C@H](N)CC(C)C)ccc1-n1ccnc1 | 92 |  | 87 | 86 |  |  |  | 
33 | COCCc1ccc(OCC(O)CNC(C)C)cc1 (stereo not drawn) [METOPROLOL] |  |  |  |  |  |  | 10.2 | 83.5 10^-6 cm/s
34 | COc1cc(NC(=O)C(CN)CC(C)C)ccc1-c1cnco1 (stereo not drawn) | 97 |  | 78 | 63 |  |  |  | 
35 | COc1cc(NC(=O)C[C@@H](N)C(C)C)ccc1-c1cnco1 | 82 | 127 | 7 | 4 |  |  |  | 
36 | COc1cc(NC(=O)[C@H](N)CC(C)C)ccc1-c1ccnc(Cl)c1 | 73 | 240 | 74 | 89 |  |  |  | 

The remaining molecules from weak to strong by IC50 [2], led by results:

Row | remaining at 10 min, 0.5 µM [1] [%] | IC50 [2] [nM] | remaining at 10 min, 0.5 µM [3] [%] | remaining at 10 min, 0.5 µM [4] [%] | Papp B→A at 2 h [5] [×10⁻⁶ cm/s] | Papp at 4 h ([6]; PAMPA, pH 7.4, read-out: permeability) [×10⁻⁶ cm/s] | Papp at 4 h [7] [×10⁻⁶ cm/s] | permeability ([6]; pampa, pH 7.4, 4 h) | Compound
37 | 64 | 72 | 57 | 50 |  |  |  |  | CC(C)C[C@@H](N)C(=O)Nc1ccc(-c2cnco2)c(C#N)c1
38 | 75 | 71 | 80 | 62 |  |  |  |  | COc1cc(NC(=O)[C@H](N)CCC(C)C)ccc1-c1cnco1
39 | 87 | 65 | 65 | 76 |  |  |  |  | CCCC[C@@H](N)C(=O)Nc1ccc(-c2cnco2)c(OC)c1
40 | 84 | 49 | 44 | 87 |  |  |  |  | COc1cc(NC(=O)[C@H](N)CC(C)C)ccc1-c1cn[nH]n1
41 | 74 | 48 | 43 | 74 |  |  |  |  | Cc1cc(NC(=O)[C@H](N)CC(C)C)ccc1-c1cnco1
42 | 53 | 46 | 14 | 39 |  |  |  |  | CN[C@H](CC(C)C)C(=O)Nc1ccc(-c2cnco2)c(OC)c1
43 | 100 | 45 | 79 | 74 |  |  |  |  | COc1cc(NC(=O)[C@H](N)CC2CC2)ccc1-c1cnco1
44 | 78 | 43 | 30 | 68 |  |  |  |  | CC(C)C[C@@H](N)C(=O)Nc1ccc(-c2cnco2)c(F)c1
45 | 63 | 42 | 75 | 60 |  |  |  |  | COc1cc(NC(=O)[C@H](N)c2ccccc2)ccc1-c1cnco1
46 | 70 | 33 | 53 | 58 |  |  |  |  | COc1cc(NC(=O)[C@H](N)CC2CCC2)ccc1-c1cnco1
47 | 86 | 31 | 81 | 62 |  |  |  |  | CC[C@@H](C)[C@@H](N)C(=O)Nc1ccc(-c2cnco2)c(OC)c1
48 | 71 | 19 | 53 | 40 |  |  |  |  | COc1cc(NC(=O)[C@@H](N)CC(C)C)ccc1-c1cnco1
49 | 69 | 18 | 67 | 66 |  |  |  |  | COc1cc(NC(=O)[C@H](N)C2CCCCC2)ccc1-c1cnco1
50 | 77 | 17 | 76 | 60 |  |  |  |  | CC(C)C1CCCNC1C(=O)Nc1ccc(-c2ccncc2)cc1 (racemic)
51 | 80 | 15 | 66 | 75 |  |  |  |  | CC(C)C[C@@H](N)C(=O)Nc1ccc(-c2ccncc2)cc1
52 | 64 | 13 | 54 | 60 |  |  |  |  | CCOc1cc(NC(=O)[C@H](N)CC(C)C)ccc1-c1cnco1
53 | 84 | 13 | 63 | 73 |  |  |  |  | COc1cc(NC(=O)[C@H](N)C2CCCC2)ccc1-c1cnco1
